Data taken from publication PMC11035515 (Drugs in R&D, 2023).
Values joined by “and” are separate entries in the source; they are usually repeats but may differ in a detail not shown here. Equal values may be shown once. Marks after values point to notes of the source that are not given here.

Experiments:
[1] = test system: CYP3A4; test: Study 2
[2] = target: T1, CYP2D6 (Homo sapiens, UniProt P10635); test: Study 2; conditions: for CL/F: mean ± SD; for Increase of exposure (AUC) by esmethadone: dextromethorphan + esmethadone 75 mg vs dextromethorphan alone; for Cmax: po
[3] = test system: CYP2B6; test: in vitro; type: in vitro ADME; conditions: human
[4] = target: T1, CYP2D6; test: Direct inhibition of CYP2D6
[5] = target: T2, CYP2C8 (Homo sapiens, UniProt P10632); conditions: HLM, esmethadone 0.2–200 μM
[6] = target: UGT1A9 (Homo sapiens, UniProt O60656); test: Inhibition of UGT1A9 in human liver microsomes
[7] = target: T3, CYP2C9 (Homo sapiens, UniProt P11712); test: biochemical
[8] = Study 2 treatment-emergent adverse events; conditions: healthy participants, alone or in combination with dextromethorphan and midazolam
[9] = target: UGT1A6 (Homo sapiens, UniProt P19224); test: Inhibition of UGT1A6 in human liver microsomes; conditions: HLM
[10] = target: CYP1A2 (Homo sapiens, UniProt P05177); conditions: HLM, esmethadone 0.2–200 μM
[11] = Study 1; type: in vivo, human; conditions: single 25-mg oral dose of [14C]-esmethadone
[12] = test system: CYP1A2; test: in vitro; type: in vitro ADME; conditions: human
[13] = target: T4, CYP2B6 (Homo sapiens, UniProt P20813); test: biochemical
[14] = target: UGT1A3 (Homo sapiens, UniProt P35503); test: Inhibition of UGT1A3 in human liver microsomes
[15] = test system: CYP2C9; test: in vitro; type: in vitro ADME; conditions: human
[16] = Study 3; conditions: human, in vivo, 25 mg
[17] = test system: CYP3A4; test: Study 3
[18] = target: T5, CYP2C19 (Homo sapiens, UniProt P33261); test: biochemical
[19] = target: T5, CYP2C19; conditions: HLM, esmethadone 0.2–200 μM
[20] = test system: CYP2C8; test: in vitro; type: in vitro ADME; conditions: human
[21] = target: UGT1A4 (Homo sapiens, UniProt P22310); test: Inhibition of UGT1A4 in human liver microsomes
[22] = target: human recombinant UGT2B15 (Homo sapiens, UniProt P54855); test: Inhibition of UGT2B15 in Supersomes
[23] = target: OCT1 (Homo sapiens, UniProt O15245); test: Uptake transporter assay in transfected HEK293 cells, OCT1 inhibition; type: in vitro ADME
[24] = target: P-glycoprotein (P-gp) (Homo sapiens, UniProt P08183); test: Efflux transporter assay in Caco-2 cells, P-gp inhibition; type: in vitro ADME
[25] = target: T4, CYP2B6; conditions: HLM, esmethadone 0.2–200 μM
[26] = target: T2, CYP2C8; test: biochemical
[27] = target: CYP2A6 (Homo sapiens, UniProt P11509); test: Direct inhibition of CYP2A6 in human liver microsomes
[28] = test system: CYP3A4; test: CYP3A4 induction in cryopreserved human hepatocytes; type: in vitro ADME; conditions: mean of three donors
[29] = target: UGT2B7 (Homo sapiens, UniProt P16662); test: Inhibition of UGT2B7 in human liver microsomes
[30] = target: T3, CYP2C9; conditions: HLM, esmethadone 0.2–200 μM
[31] = cited from earlier work
[32] = Microsomal protein binding by equilibrium dialysis; conditions: 5 h at 37 °C in HLM
[33] = target: UGT1A1 (Homo sapiens, UniProt P22309); test: Inhibition of UGT1A1 in human liver microsomes
[34] = midazolam 2 mg + esmethadone 25 mg, mean ± SD
[35] = midazolam 2 mg alone, mean ± SD
[36] = midazolam + esmethadone vs midazolam alone
[37] = mRNA levels EC50, donor 1, 72 h
[38] = mRNA levels EC50, donor 2, 72 h
[39] = mRNA levels EC50, donor 3, 72 h
[40] = IC50,u (IC50 unbound), HLM, corrected for fraction unbound

T5 sequence (P33261 whole entry): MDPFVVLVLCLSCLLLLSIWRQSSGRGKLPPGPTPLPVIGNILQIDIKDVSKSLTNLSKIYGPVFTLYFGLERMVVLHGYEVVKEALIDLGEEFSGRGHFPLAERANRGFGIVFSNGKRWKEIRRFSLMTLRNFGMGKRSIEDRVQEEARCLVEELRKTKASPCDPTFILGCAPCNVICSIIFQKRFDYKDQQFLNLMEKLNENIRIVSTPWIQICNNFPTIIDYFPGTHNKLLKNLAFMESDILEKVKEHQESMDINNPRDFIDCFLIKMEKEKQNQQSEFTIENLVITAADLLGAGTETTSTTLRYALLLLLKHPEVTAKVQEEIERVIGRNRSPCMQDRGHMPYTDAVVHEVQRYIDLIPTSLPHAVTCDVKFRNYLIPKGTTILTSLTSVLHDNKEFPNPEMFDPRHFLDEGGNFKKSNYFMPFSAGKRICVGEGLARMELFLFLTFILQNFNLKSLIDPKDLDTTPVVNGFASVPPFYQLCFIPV
T1 sequence (P10635 whole entry): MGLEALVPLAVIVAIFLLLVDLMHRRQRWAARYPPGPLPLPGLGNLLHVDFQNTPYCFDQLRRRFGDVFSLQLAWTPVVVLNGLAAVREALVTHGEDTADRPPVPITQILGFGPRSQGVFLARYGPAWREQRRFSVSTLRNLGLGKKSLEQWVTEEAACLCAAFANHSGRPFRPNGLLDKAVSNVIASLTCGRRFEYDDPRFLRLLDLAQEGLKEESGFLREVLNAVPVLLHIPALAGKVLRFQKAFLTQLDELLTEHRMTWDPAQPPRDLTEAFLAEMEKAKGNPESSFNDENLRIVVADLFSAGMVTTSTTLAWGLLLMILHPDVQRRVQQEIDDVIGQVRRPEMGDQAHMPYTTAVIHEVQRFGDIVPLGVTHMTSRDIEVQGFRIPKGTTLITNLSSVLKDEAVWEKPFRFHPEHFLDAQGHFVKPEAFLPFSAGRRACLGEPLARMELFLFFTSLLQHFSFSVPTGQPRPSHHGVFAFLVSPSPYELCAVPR
Chain of UGT1A4 (P22310 29-534): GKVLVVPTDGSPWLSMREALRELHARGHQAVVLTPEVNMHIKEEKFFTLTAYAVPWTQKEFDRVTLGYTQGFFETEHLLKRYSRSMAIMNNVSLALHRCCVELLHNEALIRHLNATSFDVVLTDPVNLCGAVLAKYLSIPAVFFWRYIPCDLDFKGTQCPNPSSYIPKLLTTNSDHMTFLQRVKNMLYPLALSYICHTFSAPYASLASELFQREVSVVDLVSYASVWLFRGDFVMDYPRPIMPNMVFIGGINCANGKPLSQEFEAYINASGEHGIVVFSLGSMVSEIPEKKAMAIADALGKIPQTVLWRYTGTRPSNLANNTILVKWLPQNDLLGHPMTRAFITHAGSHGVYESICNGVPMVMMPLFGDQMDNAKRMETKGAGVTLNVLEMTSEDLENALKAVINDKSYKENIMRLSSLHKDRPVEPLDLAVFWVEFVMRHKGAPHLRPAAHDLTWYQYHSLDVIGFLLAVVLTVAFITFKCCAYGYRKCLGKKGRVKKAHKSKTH
T3 sequence (P11712 whole entry): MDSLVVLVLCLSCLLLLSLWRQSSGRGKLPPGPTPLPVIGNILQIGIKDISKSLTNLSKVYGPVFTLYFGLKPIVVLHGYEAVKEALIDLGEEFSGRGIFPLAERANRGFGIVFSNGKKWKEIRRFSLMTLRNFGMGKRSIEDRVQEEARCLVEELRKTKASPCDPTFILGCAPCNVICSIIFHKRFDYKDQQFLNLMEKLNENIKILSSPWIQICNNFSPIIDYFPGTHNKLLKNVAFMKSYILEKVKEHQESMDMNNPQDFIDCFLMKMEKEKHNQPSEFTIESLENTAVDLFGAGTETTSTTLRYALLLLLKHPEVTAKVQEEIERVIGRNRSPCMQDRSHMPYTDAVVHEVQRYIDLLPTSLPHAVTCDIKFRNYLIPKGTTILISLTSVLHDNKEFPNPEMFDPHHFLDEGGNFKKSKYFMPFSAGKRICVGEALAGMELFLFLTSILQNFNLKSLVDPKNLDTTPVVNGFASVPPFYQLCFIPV
T4 sequence (P20813 whole entry): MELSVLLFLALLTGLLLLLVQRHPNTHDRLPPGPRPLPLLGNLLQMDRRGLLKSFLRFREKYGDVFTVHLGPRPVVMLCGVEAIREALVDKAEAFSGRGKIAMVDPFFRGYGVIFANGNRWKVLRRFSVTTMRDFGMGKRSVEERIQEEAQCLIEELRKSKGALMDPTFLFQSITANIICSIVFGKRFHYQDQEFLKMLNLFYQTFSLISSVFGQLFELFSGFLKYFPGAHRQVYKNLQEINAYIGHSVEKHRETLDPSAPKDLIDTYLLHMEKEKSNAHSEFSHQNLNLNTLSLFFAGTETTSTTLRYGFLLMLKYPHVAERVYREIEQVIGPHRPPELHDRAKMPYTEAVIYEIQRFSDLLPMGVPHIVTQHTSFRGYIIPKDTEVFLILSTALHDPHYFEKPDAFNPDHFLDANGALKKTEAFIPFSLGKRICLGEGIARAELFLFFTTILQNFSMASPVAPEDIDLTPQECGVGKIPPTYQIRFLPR
Chain of UGT1A9 (O60656 26-530): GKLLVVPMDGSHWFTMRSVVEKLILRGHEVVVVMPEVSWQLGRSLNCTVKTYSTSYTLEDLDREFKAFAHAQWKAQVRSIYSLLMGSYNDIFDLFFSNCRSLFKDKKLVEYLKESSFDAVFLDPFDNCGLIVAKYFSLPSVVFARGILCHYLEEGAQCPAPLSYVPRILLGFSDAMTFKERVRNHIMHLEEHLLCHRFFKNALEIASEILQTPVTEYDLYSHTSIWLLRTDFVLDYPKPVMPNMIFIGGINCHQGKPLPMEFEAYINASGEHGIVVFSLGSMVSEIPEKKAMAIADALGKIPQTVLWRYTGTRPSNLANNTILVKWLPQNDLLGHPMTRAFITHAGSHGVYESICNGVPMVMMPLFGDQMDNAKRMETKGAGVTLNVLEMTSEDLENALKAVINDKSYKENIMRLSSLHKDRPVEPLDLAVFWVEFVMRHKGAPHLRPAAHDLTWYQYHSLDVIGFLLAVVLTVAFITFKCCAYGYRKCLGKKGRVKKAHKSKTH
Chain of CYP2A6 (P11509 whole entry): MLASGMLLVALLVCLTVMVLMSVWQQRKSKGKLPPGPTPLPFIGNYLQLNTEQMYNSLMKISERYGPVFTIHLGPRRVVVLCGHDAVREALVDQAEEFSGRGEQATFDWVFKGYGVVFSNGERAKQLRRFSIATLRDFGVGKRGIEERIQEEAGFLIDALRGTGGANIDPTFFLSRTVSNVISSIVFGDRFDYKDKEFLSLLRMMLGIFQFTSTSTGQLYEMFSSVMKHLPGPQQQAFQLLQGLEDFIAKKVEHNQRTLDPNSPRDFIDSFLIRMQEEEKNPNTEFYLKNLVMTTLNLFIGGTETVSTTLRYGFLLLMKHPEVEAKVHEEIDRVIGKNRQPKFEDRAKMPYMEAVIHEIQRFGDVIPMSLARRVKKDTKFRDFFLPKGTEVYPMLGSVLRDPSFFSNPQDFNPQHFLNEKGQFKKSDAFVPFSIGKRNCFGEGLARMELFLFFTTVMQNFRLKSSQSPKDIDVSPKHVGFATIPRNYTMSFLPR
Chain of UGT1A1 (P22309 26-533): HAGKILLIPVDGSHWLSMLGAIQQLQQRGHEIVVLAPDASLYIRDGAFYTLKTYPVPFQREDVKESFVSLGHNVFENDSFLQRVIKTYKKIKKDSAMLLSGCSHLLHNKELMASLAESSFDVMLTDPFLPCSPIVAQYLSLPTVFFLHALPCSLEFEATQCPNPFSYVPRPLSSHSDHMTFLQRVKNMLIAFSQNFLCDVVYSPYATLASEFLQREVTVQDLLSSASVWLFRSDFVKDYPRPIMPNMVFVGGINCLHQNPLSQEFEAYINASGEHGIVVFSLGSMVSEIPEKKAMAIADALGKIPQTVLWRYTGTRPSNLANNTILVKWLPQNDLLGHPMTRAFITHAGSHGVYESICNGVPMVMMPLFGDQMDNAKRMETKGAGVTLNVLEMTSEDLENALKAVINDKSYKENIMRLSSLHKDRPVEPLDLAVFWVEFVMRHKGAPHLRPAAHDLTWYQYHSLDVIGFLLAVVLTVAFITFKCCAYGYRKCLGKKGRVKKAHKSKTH
T2 sequence (P10632 whole entry): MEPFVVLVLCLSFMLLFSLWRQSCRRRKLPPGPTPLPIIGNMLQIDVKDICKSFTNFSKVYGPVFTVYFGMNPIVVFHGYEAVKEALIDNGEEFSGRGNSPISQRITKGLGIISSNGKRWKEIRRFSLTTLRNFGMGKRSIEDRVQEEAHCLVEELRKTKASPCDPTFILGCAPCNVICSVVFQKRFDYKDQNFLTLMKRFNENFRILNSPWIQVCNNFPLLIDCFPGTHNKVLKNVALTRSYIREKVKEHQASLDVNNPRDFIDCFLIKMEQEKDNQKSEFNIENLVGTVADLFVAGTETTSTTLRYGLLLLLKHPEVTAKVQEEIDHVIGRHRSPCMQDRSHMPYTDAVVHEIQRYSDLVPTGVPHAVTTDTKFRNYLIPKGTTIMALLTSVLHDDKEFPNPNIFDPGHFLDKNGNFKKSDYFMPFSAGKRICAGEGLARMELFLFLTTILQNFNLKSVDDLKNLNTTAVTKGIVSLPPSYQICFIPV
Chain of human recombinant UGT2B15 (P54855 24-530): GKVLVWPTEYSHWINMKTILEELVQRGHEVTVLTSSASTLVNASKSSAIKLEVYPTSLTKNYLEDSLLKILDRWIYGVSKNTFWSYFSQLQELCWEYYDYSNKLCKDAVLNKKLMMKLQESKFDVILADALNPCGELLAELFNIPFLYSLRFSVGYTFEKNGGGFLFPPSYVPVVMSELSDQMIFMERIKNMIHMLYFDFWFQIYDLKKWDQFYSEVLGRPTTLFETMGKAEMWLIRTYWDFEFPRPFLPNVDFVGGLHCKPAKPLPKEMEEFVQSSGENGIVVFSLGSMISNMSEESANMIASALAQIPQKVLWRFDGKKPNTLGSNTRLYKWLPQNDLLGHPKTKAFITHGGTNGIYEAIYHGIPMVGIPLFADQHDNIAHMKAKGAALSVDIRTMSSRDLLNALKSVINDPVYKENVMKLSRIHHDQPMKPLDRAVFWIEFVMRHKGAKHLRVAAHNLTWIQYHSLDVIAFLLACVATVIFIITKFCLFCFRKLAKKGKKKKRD

OCc1ncc2n1-c1ccc(Cl)cc1C(c1ccccc1F)=NC2 [1′-hydroxymidazolam]
Cmax ([1]; midazolam 2 mg + esmethadone 25 mg (day 19, after repeated dosing), mean ± SD): 13,100 ± 4930 pg/mL | AUC0–inf [1, 34]: 42,700 ± 15100 h*pg/mL | AUC0–t [1, 34]: 41,100 ± 14,500 h*pg/mL | Tmax ([1]; midazolam 2 mg + esmethadone 25 mg, median (range)): 0.925 (0.500–2.00)* h | AUC0–inf [1, 35]: 11,600 ± 8260 h*pg/mL | AUC0–t [1, 35]: 10,700 ± 7360 h*pg/mL | Tmax ([1]; midazolam 2 mg alone, median (range)): 0.500 (0.500–0.750) h | Cmax ([1]; midazolam 2 mg oral alone (day 1), plasma, mean ± SD): 5440 ± 3520 pg/mL | Increase of AUC by esmethadone [1, 36]: 3.84 fold and 3.8 fold | Increase of Cmax by esmethadone [1, 36]: 2.4 fold

COc1ccc2c(c1)[C@]13CCCC[C@@H]1[C@H](C2)N(C)CC3 [dextromethorphan]
CL/F ([2]; dextromethorphan 30 mg + esmethadone 75 mg): 907 ± 715 L/h | CL/F ([2]; dextromethorphan 30 mg alone): 4560 ± 3280 L/h | Increase of exposure (AUC) by esmethadone [2]: 2.71 fold | AUC(0-inf) ([2]; human, plasma, oral, 30 mg): 31.2 ng·h/mL | AUC(0-t) ([2]; human, plasma, oral, 30 mg): 26.6 ng·h/mL | Tmax ([2]; human, plasma, oral, 30 mg): 2.5 h | Vd/F ([2]; human, plasma, oral, 30 mg): 39000 L | half-life ([2]; human, plasma, oral, 30 mg): 7.15 ± 3.29 h | Cmax ([2]; human, plasma, 30 mg): 2.2 ± 3.8 ng/mL

CN1CC[C@@]23CCCC[C@@H]2[C@@H]1Cc1ccc(O)cc13 [dextrorphan]
Increase of exposure (AUC) by esmethadone [2]: 3.11 fold | AUC(0-inf) ([2]; human, plasma, oral, 30 mg): 27.2 ng·h/mL | AUC(0-t) ([2]; human, plasma, oral, 30 mg): 26.3 ng·h/mL | half-life ([2]; human, plasma, oral, 30 mg): 5.64 ± 4.97 h | Cmax ([2]; human, plasma, 30 mg): 4.9 ± 2.62 ng/mL

CCC(=O)C(C[C@H](C)N(C)C)(c1ccccc1)c1ccccc1 [esmethadone]
EC50 at 72 h [3, 37]: 4.3 µM | EC50 at 72 h [3, 38]: 5.36 µM | EC50 at 72 h [3, 39]: 4.12 µM | Type of inhibition ([4]; HLM): mixed (competitive and non-competitive) inhibition | Conclusion (inhibitory activity) ([4]; HLM, esmethadone 0.2–200 μM): Yes | IC50 ([4]; IC50, HLM, dextromethorphan O-demethylase): 9.6 µM and 9.63 µM | IC50 [4, 40]: 8.28 µM | Ki ([4]; Ki, HLM, five substrate concentrations 2–50 μM): 2.02 µM | Ki ([4]; Ki,u (unbound Ki), HLM, corrected for fraction unbound): 1.74 µM | Conclusion (inhibitory activity) [5]: Yes | IC50 [6]: > 200 µM | Conclusion (inhibitory activity) ([6]; HLM): Yes | IC50 [7]: > 200 µM | Tolerability [8]: well tolerated | Conclusion (inhibitory activity) [9]: No | Conclusion (inhibitory activity) [10]: No | Fecal excretion of the component [11]: no fecal excretion | Percent of the total plasma radioactivity exposure through 24 h post-dose [11]: 70.4% | Radioactivity excreted in urine [11]: 53.9 % of the dose | Mean exposure (AUC0.5–24) in plasma ([11]; healthy male subjects): 1200 ng eq. h/g | Urinary excretion of the component ([11]; mean across subjects): 13 % of the dose | EC50 at 72 h [12, 37]: 25.7 µM | EC50 at 72 h [12, 38]: 3.75 µM | EC50 at 72 h [12, 39]: 26.3 µM | CYP2D6 inhibitor category (FDA guidelines) ([2]; clinical, esmethadone 75 mg loading dose): moderate inhibitor of CYP2D6 | IC50 [13]: > 200 µM | IC50 [14]: > 200 µM | Conclusion (inhibitory activity) ([14]; HLM): Yes | EC50 at 72 h [15, 37]: 1.05 µM | EC50 at 72 h [15, 39]: 18.1 µM | Tmax [16]: 3 h | Maximum observed concentration (text, concentration–time profiles) ([17]; esmethadone 25 mg co-administered with cobicistat): 130 ± 22.5 ng/mL | Increase of total exposure (AUC0–inf) by cobicistat ([17]; esmethadone + cobicistat vs alone): 32% | AUC(0-inf) ([17]; human, in vivo, 25 mg): 4430 ± 1370 ng·h/mL | AUC(0-t) ([17]; human, in vivo, 25 mg): 4100 ± 1210 ng·h/mL | Cmax ([17]; human, in vivo, po, 25 mg): 131 ± 31.5 ng/mL | IC50 ([18]; IC50, HLM): 174 µM | IC50 [18, 40]: 150 µM | Conclusion (inhibitory activity) [19]: Yes | EC50 at 72 h [20, 37]: 2.85 µM | EC50 at 72 h [20, 39]: 5.27 µM | IC50 [21]: > 200 µM | Conclusion (inhibitory activity) ([21]; HLM): Yes | IC50 [22]: 139 µM | Conclusion (inhibitory activity) ([22]; Supersomes): Yes | IC50 [23]: 1.67 µM | IC50 [24]: 9.28 µM | Conclusion (inhibitory activity) [25]: Yes | IC50 [26]: > 200 µM | IC50 [27]: > 200 µM | Conclusion (inhibitory activity) ([27]; HLM, esmethadone 0.2–200 μM): Yes | Increase of CYP3A4 enzyme activity [28]: 5.2 ± 4.8 fold | Increase of CYP3A4 mRNA [28]: 21.4 ± 1.1 fold | IC50 [29]: > 200 µM | Conclusion (inhibitory activity) ([29]; HLM): Yes | Conclusion (inhibitory activity) [30]: Yes | Effect of esmethadone on CYP3A4 activity ([1]; clinical, esmethadone 25 mg once daily): negligible effect | Cmax,u, maximal unbound concentration in plasma at steady state [31]: 587 nM | Stability under equilibrium dialysis testing conditions [32]: stable | IC50 [33]: > 200 µM | Conclusion (inhibitory activity) ([33]; HLM): Yes

CCC(=O)C(C[C@@H](C)N(C)C)(c1ccccc1)c1ccccc1 [levomethadone]
Time to maximum observed concentration (Tmax) ([31]; oral methadone): 3 h

CCC(=O)C(CC(C)N(C)C)(c1ccccc1)c1ccccc1 (centres unmarked) [methadone]
Higher concentration associated with a single nucleotide polymorphism of P-gp [31]: 32.9% | Oral bioavailability, inter-subject range [31]: 36–100% | Oral bioavailability ([31]; similar for the two enantiomers): 70–80%

Cc1ncc2n1-c1ccc(Cl)cc1C(c1ccccc1F)=NC2 [midazolam, reference compound]
AUC(0-inf) ([1]; human, in vivo, 2 mg): 26.8 ng·h/mL | AUC(0-t) ([1]; human, in vivo, 2 mg): 25.5 ng·h/mL | Tmax ([1]; human, in vivo, 2 mg): 0.5 h | Vd/F ([1]; human, in vivo, 2 mg): 571 ± 182 L | half-life ([1]; human, in vivo, 2 mg): 5.12 ± 1.92 h | Cmax ([1]; human, in vivo, po, 2 mg): 11500 pg/mL | CL/F [1, 34]: 84.5 ± 27.5 L/h | CL/F [1, 35]: 83.8 ± 27.9 L/h

oxy-esmethadone glucuronide
Percent of the total plasma radioactivity exposure through 24 h post-dose [11]: 0.473%
